Results: patent US12521393B2, “Cytotoxicity targeting chimeras for CCR2-expressing cells” (GLAXOSMITHKLINE INTELLECTUAL PROPERTY DEVELOPMENT LIMITED, priority 2021, dated 2026)

Columns and labels:
[1] = test system: endogenous target monocytes in human PBMC; test: PBMC ex vivo monocyte depletion flow cytometry assay (Example 200); assay type: cell-based; settings: with anti-cotinine antibody (SEQ ID NO: 11/12), 18-24 hours, EC50 in molar, read-out: Ex Vivo Depletion Assay pEC50 (converted)
Method in brief: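 Monocyte depletion is reported as pEC50, averaged or given individually across runs, and read by flow cytometry staining CD45, CD14 and CD4 with a viability dye. Compounds, diluted four-fold over 11 points from 1 mM DMSO stocks, were combined with 30 μg/mL Fc-enhanced anti-cotinine antibody and human PBMC, then incubated 18-24 h at 37° C.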

[2] = test system: CCR2 expressing cells (CD11b+Ly6c+Hi) in peripheral blood; test: In vivo depletion assay, flow cytometry of peripheral blood (Example 201); parameters: species or system human CCR2 knock-in mice (C57 background); settings: hCCR2 knock-in mice, IV 0.1 mpk compound + 10 mpk anti-cotinine antibody (SEQ ID NO: 13/14), peripheral blood at 48 hr
Method in brief: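 Flow cytometry of blood collected at study termination quantified percent depletion of CD11b+Ly6c+Hi cells and CCR2 expression, using surface markers CD45, CD3, CD11b, Ly6C, human CCR2 after Fc block, with 7AAD viability stain. Compound given in saline:DMSO:PBS formulation, optionally combined with anti-cotinine antibody, incubated 30 min before administration.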

Row | Compound | EC50 [1] [pM] | % Depletion of CCR2 expressing cells [2] [%]
1 | CC(C)N(C)[C@@H]1CC[C@H](N2CC[C@H](Nc3ncnc4ccc(C(F)(F)F)cc34)C2=O)[C@H](NC2CCN(C(=O)CCOCCOCCOCCOCCNC(=O)[C@H]3CC(=O)N(C)[C@@H]3c3cccnc3)CC2)C1 [Example 69, (2S,3S)-N-(15-(4-(((1R,2S,5R)-5-(Isopropyl(methyl)amino)-2-((S)-2-oxo-3-((6-(trifluoromethyl)quinazolin-4-yl)amino)pyrrolidin-1-yl)cyclohexyl)amino)piperidin-1-yl)-15-oxo-3,6,9,12-tetraoxapentadecyl)-1-methyl-5-oxo-2-(pyridin-3-yl)pyrrolidine-3-carboxamide] | 1580 | 98.59
2 | CC(C)N(C)[C@@H]1CC[C@H](N2CC[C@H](Nc3ncnc4ccc(C(F)(F)F)cc34)C2=O)[C@H](NC(=O)CCOCCOCCNC(=O)CCOCCOCCNC(=O)[C@H]2CC(=O)N(C)[C@@H]2c2cccnc2)C1 [Example 76, (2S,3S)-N-(19-(((1R,2S,5R)-5-(Isopropyl(methyl)amino)-2-((S)-2-oxo-3-((6-(trifluoromethyl)quinazolin-4-yl)amino)pyrrolidin-1-yl)cyclohexyl)amino)-9,19-dioxo-3,6,13,16-tetraoxa-10-azanonadecyl)-1-methyl-5-oxo-2-(pyridin-3-yl)pyrrolidine-3-carboxamide] | 1260 | 65
3 | CC(C)N(C)[C@@H]1CC[C@H](N2CC[C@H](Nc3ncnc4ccc(C(F)(F)F)cc34)C2=O)[C@H](NC(=O)[C@H]2CC[C@@H](NC(=O)COCCNC(=O)COCCNC(=O)[C@H]3CC(=O)N(C)[C@@H]3c3cccnc3)CC2)C1 [Example 99, (2S,3S)-N-(2-(2-((2-(2-(((1S,4s)-4-(((1R,2S,5R)-5-(Isopropyl(methyl)amino)-2-((S)-2-oxo-3-((6-(trifluoromethyl)quinazolin-4-yl)amino)pyrrolidin-1-yl)cyclohexyl)carbamoyl)cyclohexyl)amino)-2-oxoethoxy)ethyl)amino)-2-oxoethoxy)ethyl)-1-methyl-5-oxo-2-(pyridin-3-yl)pyrrolidine-3-carboxamide] | 794 | 80
4 | CC(C)N(C)[C@@H]1CC[C@H](N2CC[C@H](Nc3ncnc4ccc(C(F)(F)F)cc34)C2=O)[C@H](NC(=O)CCOCCNC(=O)COCCNC(=O)COCCNC(=O)[C@H]2CC(=O)N(C)[C@@H]2c2cccnc2)C1 [Example 102, (2S,3S)-N-(18-(((1R,2S,5R)-5-(Isopropyl(methyl)amino)-2-((S)-2-oxo-3-((6-(trifluoromethyl)quinazolin-4-yl)amino)pyrrolidin-1-yl)cyclohexyl)amino)-5,11,18-trioxo-3,9,15-trioxa-6,12-diazaoctadecyl)-1-methyl-5-oxo-2-(pyridin-3-yl)pyrrolidine-3-carboxamide] | 316 | 91
5 | CC(C)N(C)[C@@H]1CC[C@H](N2CC[C@H](Nc3ncnc4ccc(C(F)(F)F)cc34)C2=O)[C@H](NC(=O)CCOCCNC(=O)CCOCCNC(=O)COCCNC(=O)[C@H]2CC(=O)N(C)[C@@H]2c2cccnc2)C1 [Example 105, (2S,3S)-N-(19-(((1R,2S,5R)-5-(Isopropyl(methyl)amino)-2-((S)-2-oxo-3-((6-(trifluoromethyl)quinazolin-4-yl)amino)pyrrolidin-1-yl)cyclohexyl)amino)-5,12,19-trioxo-3,9,16-trioxa-6,13-diazanonadecyl)-1-methyl-5-oxo-2-(pyridin-3-yl)pyrrolidine-3-carboxamide] | 398 | 95
6 | CC(C)N(C)[C@@H]1CC[C@H](N2CC[C@H](Nc3ncnc4ccc(C(F)(F)F)cc34)C2=O)[C@H](NC(=O)CCOCCNC(=O)[C@H]2CC[C@@H](NC(=O)COCCNC(=O)[C@H]3CC(=O)N(C)[C@@H]3c3cccnc3)CC2)C1 [Example 107, (2S,3S)-N-(2-(2-(((1S,4R)-4-((2-(3-(((1R,2S,5R)-5-(Isopropyl(methyl)amino)-2-((S)-2-oxo-3-((6-(trifluoromethyl)quinazolin-4-yl)amino)pyrrolidin-1-yl)cyclohexyl)amino)-3-oxopropoxy)ethyl)carbamoyl)cyclohexyl)amino)-2-oxoethoxy)ethyl)-1-methyl-5-oxo-2-(pyridin-3-yl)pyrrolidine-3-carboxamide] | 200 | 96
7 | CC(C)N(C)[C@@H]1CC[C@H](N2CC[C@H](Nc3ncnc4ccc(C(F)(F)F)cc34)C2=O)[C@H](NC(=O)COCCNC(=O)COCCNC(=O)COCCNC(=O)[C@H]2CC(=O)N(C)[C@@H]2c2cccnc2)C1 [Example 111, (2S,3S)-N-(17-(((1R,2S,5R)-5-(Isopropyl(methyl)amino)-2-((S)-2-oxo-3-((6-(trifluoromethyl)quinazolin-4-yl)amino)pyrrolidin-1-yl)cyclohexyl)amino)-5,11,17-trioxo-3,9,15-trioxa-6,12-diazaheptadecyl)-1-methyl-5-oxo-2-(pyridin-3-yl)pyrrolidine-3-carboxamide] | 5010 | 50
8 | CC(C)N(C)[C@@H]1CC[C@H](N2CC[C@H](Nc3ncnc4ccc(C(F)(F)F)cc34)C2=O)[C@H](NC(=O)[C@H]2CC[C@@H](NC(=O)CCCOCCCCOCCNC(=O)[C@H]3CC(=O)N(C)[C@@H]3c3cccnc3)CC2)C1 [Example 122, (2S,3S)-N-(2-(4-(4-(((1S,4s)-4-(((1R,2S,5R)-5-(Isopropyl(methyl)amino)-2-((S)-2-oxo-3-((6-(trifluoromethyl)quinazolin-4-yl)amino)pyrrolidin-1-yl)cyclohexyl)carbamoyl)cyclohexyl)amino)-4-oxobutoxy)butoxy)ethyl)-1-methyl-5-oxo-2-(pyridin-3-yl)pyrrolidine-3-carboxamide] | 794 | 94
9 | CC(C)N(C)[C@@H]1CC[C@H](N2CC[C@H](Nc3ncnc4ccc(C(F)(F)F)cc34)C2=O)[C@H](NC(=O)CNC(=O)[C@H]2CC[C@@H](NC(=O)CCOCCOCCNC(=O)[C@H]3CC(=O)N(C)[C@@H]3c3cccnc3)CC2)C1 [Example 137, (2S,3S)-N-(2-(2-(3-(((1S,4s)-4-((2-(((1R,2S,5R)-5-(Isopropyl(methyl)amino)-2-((S)-2-oxo-3-((6-(trifluoromethyl)quinazolin-4-yl)amino)pyrrolidin-1-yl)cyclohexyl)amino)-2-oxoethyl)carbamoyl)cyclohexyl)amino)-3-oxopropoxy)ethoxy)ethyl)-1-methyl-5-oxo-2-(pyridin-3-yl)pyrrolidine-3-carboxamide] | 2000 | 89
10 | CC(C)N(C)[C@@H]1CC[C@H](N2CC[C@H](Nc3ncnc4ccc(C(F)(F)F)cc34)C2=O)[C@H](NC(=O)[C@H]2CC[C@@H](NC(=O)CCOCCNC(=O)CCNC(=O)CCNC(=O)[C@H]3CC(=O)N(C)[C@@H]3c3cccnc3)CC2)C1 [Example 182, (2S,3S)-N-(3-((3-((2-(3-(((1S,4s)-4-(((1R,2S,5R)-5-(Isopropyl(methyl)amino)-2-((S)-2-oxo-3-((6-(trifluoromethyl)quinazolin-4-yl)amino)pyrrolidin-1-yl)cyclohexyl)carbamoyl)cyclohexyl)amino)-3-oxopropoxy)ethyl)amino)-3-oxopropyl)amino)-3-oxopropyl)-1-methyl-5-oxo-2-(pyridin-3-yl)pyrrolidine-3-carboxamide] | 158 | 97
11 | CC(C)N(C)[C@@H]1CC[C@H](N2CC[C@H](Nc3ncnc4ccc(C(F)(F)F)cc34)C2=O)[C@H](NC(=O)CCOCCC(=O)N[C@H]2C[C@@H](C(=O)NCCOCCNC(=O)[C@H]3CC(=O)N(C)[C@@H]3c3cccnc3)C2)C1 [Example 186, (2S,3S)-N-(2-(2-((1S,3R)-3-(3-(3-(((1R,2S,5R)-5-(Isopropyl(methyl)amino)-2-((S)-2-oxo-3-((6-(trifluoromethyl)quinazolin-4-yl)amino)pyrrolidin-1-yl)cyclohexyl)amino)-3-oxopropoxy)propanamido)cyclobutane-1-carboxamido)ethoxy)ethyl)-1-methyl-5-oxo-2-(pyridin-3-yl)pyrrolidine-3-carboxamide] | 316 | 96
12 | CC(C)N(C)[C@@H]1CC[C@H](N2CC[C@H](Nc3ncnc4ccc(C(F)(F)F)cc34)C2=O)[C@H](NC(=O)CCOCCC(=O)N[C@H]2C[C@H](C(=O)NCCOCCNC(=O)[C@H]3CC(=O)N(C)[C@@H]3c3cccnc3)C2)C1 [Example 187] | 251 | 92
13 | CN1C(=O)C[C@H](C(=O)NCCOCCNC(=O)[C@H]2C[C@H](NC(=O)CCOCCC(=O)N[C@@H]3C[C@H](NC(C)(C)C)CC[C@@H]3N3CC[C@H](Nc4ncnc5ccc(C(F)(F)F)cc45)C3=O)C2)[C@H]1c1cccnc1 [Example 188, (2S,3S)-N-(2-(2-((1R,3S)-3-(3-(3-(((1R,2S,5R)-5-(tert-butylamino)-2-((S)-2-oxo-3-((6-(trifluoromethyl)quinazolin-4-yl)amino)pyrrolidin-1-yl)cyclohexyl)amino)-3-oxopropoxy)propanamido)cyclobutane-1-carboxamido)ethoxy)ethyl)-1-methyl-5-oxo-2-(pyridin-3-yl)pyrrolidine-3-carboxamide] | 316 | 91
